From PMC12646544, “Bioremediation of acetamiprid and sulfoxaflor co-contamination by Ensifer sp. DA6 and characterization of a novel nitrile hydratase involved” (Frontiers in Microbiology, 2025)

Tested on: T1, Ensifer sp. DA6 NHase
T1 construct: gene nthA; NHase gene cluster (alpha, beta, accessory) in pET28a, E. coli Rosetta (DE3), N-terminal 6xHis-tag, Ni-NTA purified; cobalt type; accessory protein not detected on SDS-PAGE; forward primer encodes MSEHHHG; alpha motif VCTLCSC; with Nitrile hydratase accessory protein
Assay: HPLC, Michaelis-Menten non-linear regression
Type: biochemical
Settings: 50 mmol/L PBS pH 7.0, 45 °C, cobalt enzyme, 25-1,000 mg/L substrate
From the text: HPLC, Michaelis-Menten non-linear regression on Ensifer sp.

Row | SMILES | Km (30 min, stereoisomer mixture) [mM] | Km (60 min) [mM]
1 | CC(c1ccc(C(F)(F)F)nc1)S(C)(=O)=NC#N (centres unmarked) [SUL, [N-(methyloxido{1-[6-(trifluoromethyl)-3-pyridinyl]ethyl}-λ^4-sulfanylidene)cyanamide]] | 7.93 | –
2 | C/C(=N\C#N)N(C)Cc1ccc(Cl)nc1 [ACE, N-[(6-chloro-3-pyridyl)methyl]-N′-cyano-N-methylacetamidine] | – | 8.16
